# “Also recorded” adds a separate entry of the source.
# B1: CD40L: human CD40L recombinant protein (protein)
# chain: ENSFEMQKGDQNPQIAAHVISEASSKTTSVLQWAEKGYYTMSNNLVTLENGKQLTVKRQGLYYIYAQVTFCSNREASSQAPFIASLCLKSPGRFERILLRAANTHSSAKPCGQQSIHLGGVFELQPGASVFVNVTDPSQVSHGTGFTSFGLLKL
# Tests used:
# IL-1β [1] = test: IL-1β secretion from HAEC, ELISA; type: cell-based, human
# Procedure: (§1) The assay for either IL-1β or IFN-γ was performed in strict accordance with the manufacturer's instructions for the respective assay kits.
# (§2) The resulting cell culture media were assayed for IL-1β or IFN-γ using ELISA. […] The lowest effective concentration was determined to be 100 nM for IFN-γ ([…]). The lowest effective concentration was determined to be 100 nM for IFN-γ (p<0.01) and 1 μM for IL-1β (p<0.01).
# IFN-γ = IFN-γ secretion from HAEC, ELISA; type: cell-based, human
# Procedure: as §1
# (§3) Activation of CD40 signalling can be achieved by stimulation with either CD40L or certain anti-CD40 mAbs. Since synthetic CD40L is not commercially available, one of the anti-CD40 mAbs (clone 3/23), which has been reported to activate CD40 signalling, was used to mimic the effect of interaction of CD40-CD40L. All Aβ-treated cells were incubated with 1 μg/ml anti-CD40 mAb […]) for four hours followed by CELISA.
# as §2
# CD40 [2] = test: CD40 cell-surface expression on HAEC, flow cytometry; type: cell-based, human; details: Aβ 500 nM, IFN-γ 10 U/mL; vs control peptide or Aβ-free
# Procedure: Cultured HAEC were treated as described above. […] Cells were analyzed on a FACScan flow cytometer (Becton-Dickinson, Mountain View, Calif.) using LYSIS-II software. CD40-expressing cells are defined as percentage of CD40-staining cells minus the percentage of IgG1-staining cells.
# CD40 expression between control peptide-treated and Aβ-free AEC was relatively similar.
# IFN-γR [3] = test: IFN-γR expression in HASM cells, cell-ELISA (CELISA); type: cell-based, human
# Procedure: (§4) In vitro measurement of Aβ-induced changes in expression of the inflammatory cell-surface molecules CD40 and […] in cultured HAEC and HASM cells was performed using a slightly modified ABC-based cell-ELISA (CELISA). […] After PBS washes, 4% neutral formalin solution (Sigma) was used for fixation of the cells. Following quenching of the endogenous peroxidase activity with 3% H2O2 and routine blocking of non-specific binding, the biotinylated specific secondary antibodies against the primary antibodies (goat anti-mouse or anti-rabbit IgG) were applied. The combination of EXTRAVIDIN® Proxidase and the subsequent color reaction was performed strictly according to the manufacturer's instructions in the EXTRAVIDIN® Peroxidase Staining Kit (Sigma). The absorbance of 405 nm was then measured using a microplate reader (SPECTRAmax 250, Molecular Devices). The optical density (O.D.) value for the wells in the absence of the primary antibody for each group was considered as background and subtracted as the blank. In addition, stimulation with IFN-γ for CD40 was included as a positive control in the appropriate plate. Since CD45 is not expressed by endothelial or smooth muscle cells, the assays for expression of CD45 in these Aβ-treated cells were used as negative controls throughout the experiment. In addition, to evaluate the degree of cell death or proliferation in the Aβ-treated, cells, parallel experiments were performed using the MTS (3-(4,5-dimethylthiazol-2-yl)-5-(3-carboxymethoxyphenyl)-2-(4-sulfophenyl)-2H-tetrazolium) cell-proliferation kit (Promega).
# as §3
# IL-1β [4] = test: Human IL-1β release ELISA, HAEC with or without CD40 ligation; type: cell-based; details: for IL-1β release following CD40 ligation: 48 hour pre-treatment, then CD40L for eight hours; for IL-1β release in the absence of CD40L stimulation: Aβ 500 nM, IFN-γ 10 U/mL, 48 hours
# Procedure: To examine if endothelial CD40 would be functional, cultured HAEC were plated at 5×10^4 cells/well in 6-well tissue culture plates (Nunc-Immuno™ Plate, Denmark) and incubated at 37° C. with human CD40L recombinant protein (CD40L, 0.5 ug/mL, kindly provided by Dr. Jean-Yves Bonnefoy, Glaxo Institute for Molecular Biology, Geneva) in fresh cultured media for eight hours, and cell-free supernatants were collected for IL-1β release assay. The assay for human IL-1β was performed in strict accordance with the manufacturer's instruction using the human Predicta™ IL-1β Kit (Genzyme). Absorbance at 450 nm was measured using a microplate spectrophotometer (SPECTRAmax 250, Molecular Devices, Sunnyvale, Calif.).
# A second group of cells was subjected to these same treatments and incubated with CD40L ([…]) for eight hours following the initial 48 hour treatment period. IL-1β release was then quantified using a human IL-1β ELISA kit as described in materials and methods.
# CD40 [5] = test: CD40 expression in Aβ-treated N9 and N60 microglial cells, flow cytometry; type: cell-based, murine
# Source text: Mononuclear cells from AD patients secrete markedly higher levels of IFN-γ compared to age-matched controls (18).
# IFN-γR [6] = test: IFN-γR expression in HAEC, cell-ELISA (CELISA) and Western blotting; type: cell-based, human; details: for expression of IFN-γR on cytokine treatment: recombinant human cytokine
# Procedure: as §4, §3
# The total protein was estimated using the Bio-Rad protein assay. An aliquot corresponding to 100 μg of total protein of each sample was separated by SDS/PAGE (polyacrylamide gel electrophoresis) and transferred electrophoretically to PVDF filters. Non-specific binding of antibody was blocked with 5% non-fat dry milk, in 20 mM Tris/HCl, pH 7.5/150 mM NaCl/0.1% Triton X-100. Immunoblotting was carried out with the appropriate antibody followed by alkaline phosphatase-conjugated secondary anti-immunoglobulin antibodies. These were then developed by the chemiluminescence method (Bio-Rad).
# CD40 [7] = test: CD40 protein in cultured HAEC, Western immunoblotting; type: cell-based, human; details: Aβ 5 μM, IFN-γ 100 U/mL, 48 hours
# Procedure: Cultured HAEC were plated at 1×10^6 cells/well in 100 mm culture dishes (Falcon, Becton Dickinson Inc. New Jersey). […] Cells were washed in ice-cold phosphate buffered saline (PBS) three times and lysed in an ice-cold lysis buffer containing 0.2 mM EDTA, 20 mM Tris/HCl (pH 8.0), 100 mM NaCl, 3% Nonidet P-40, 50 mM NaF, 10 mM sodium pyrophosphate, 2 mM orthovanadate, 10 μg/mL each of aprotinin and leupeptin and 1 mM PMSF. After incubation for thirty minutes on ice, samples were centrifuged at 15,000 rpm for fifteen minutes, and supernatants were collected. Total protein content was estimated using the Bio-Rad protein assay. An aliquot corresponding to 50 μg of total protein of each sample was separated by SDS-PAGE and transferred electrophoretically to Hy-bond PVDF membranes (Bio-Rad, California). Nonspecific antibody binding was blocked overnight at 4° C. with 5% non-fat dry milk in TBS (20 mM Tris, 500 mM NaCl, pH 7.5). […] Blots were also carried out on identical membranes with a reference anti-actin mouse monoclonal antibody (Boehringer Mannhem), which allowed for semi-quantitative CD40 protein determination. Densitometric analysis was performed for protein bands using the Fluor-S™ MultiImager with Quantity One™ software (Bio-Rad, California).
# CD40 [8] = test: CD40 expression in HAEC, cell-ELISA (CELISA); type: cell-based, human; details: for expression of CD40 on cytokine treatment: recombinant human cytokine
# Procedure: as §4
# HAEC [9] = test: Cytotoxicity in HAEC, LDH release assay; type: cell-based, human; details: 500 nM, 48 hours
# Procedure: Previous reports have shown that overexpression of amyloid precursor protein or exogenous addition of Aβ peptides can have cytotoxic effects on cultured endothelial cells.
# In order to determine if ligation of endothelial CD40 could result in production of pro-inflammatory cytokines, IL-1β was measured following treatment with IFN-γ or Aβ peptides. […] There was not observe a significant induction of endothelial cell death by LDH release assay between treatment groups during the time course examined by IL-1β release assay (by One-way ANOVA, F(6,41)=0.322, p=0.921), supporting the hypothesis that stimulation of the CD40 pathway in endothelial cells results in an early pro-inflammatory cascade which later promotes cell injury, rather than induce cytotoxicity acutely.
# CD40 [10] = test: CD40 cell ELISA on cultured HAEC; type: cell-based, human; details: Aβ 50 nM to 10,000 nM; IFN-γ 5 to 500 U/mL; 48 hours
# Procedure: To determine if CD40 expression on cultured HAEC was IFN-γ or Aβ dose-dependent, CD40 cell ELISA assays were performed according to published procedures. Briefly, cultured HAEC were plated at 2×10^4 cells/well in flat-bottom, 96-well tissue culture plates (Nunc-Immuno™ Plate, Denmark). […] Other HAEC were treated with a dose range (5 U/mL to 500 U/mL) of IFN-γ. […] Forty-eight hours post-treatment, plates were fixed overnight at 4° C. in 1% paraformaldehyde diluted in 1×PBS, washed three times with wash buffer (0.5% Tween 20 in 1×PBS), and subsequently incubated with […] of blocking buffer (10% fetal bovine serum in wash buffer) for one hour at 37° C. Cells were then treated with purified anti-human CD40 antibody ([…], PharMingen, Los Angeles, Calif.) in […] of blocking buffer for one hour at 37° C. Plates were washed four times with wash buffer. Biotinylated anti-mouse IgG1 (PharMingen, Los Angeles, Calif.; 1:2,000 dilution in blocking buffer, […]) was added and incubated for one hour at 37° C., followed by the addition of […] of a 1:3,000 dilution of HRP-Streptavidin (ZYMED, San Francisco, Calif.) for thirty minutes at 37° C. Plates were washed 4× with wash buffer and developed for twenty minutes at room temperature using the 3, 3′, 5, 5′-tetramethylbenzidine (TMB) one-step substrate system (DAKO, Carpinteria, Calif.) followed by the addition of 100 μL/well of 2N H2SO4 to stop the reaction. Absorbance was measured at 450 nm using a microplate spectrophotometer (SPECTRAmax 250, Molecular Devices, Sunnyvale, Calif.).
# HAEC [11] = test: MTS cell death/proliferation in Aβ-treated HAEC; type: cell-based, human; details: 10 or 20 μM
# Procedure: as §4, with “In addition, to evaluate the degree of cell death or proliferation in the Aβ-treated, cells, parallel experiments were performed using the MTS (3-(4,5-dimethylthiazol-2-yl)-5-(3-carboxymethoxyphenyl)-2-(4-sulfophenyl)-2H-tetrazolium) cell-proliferation kit (Promega).” left out
# neurons = details: exogenous, at levels similar to those produced by activated microglia; cited from earlier work
# TNF-α = TNF-α release from cultured microglia, TNF-α ELISA; type: cell-based, mice; details: microglia pre-treated with 500 nM Aβ1-42
# cortical neurons = test: Cortical neurons incubated with treated N9 microglia, photomicrographs; type: cell-based, murine; details: Aβ1-42 250 nM, CD40L 0.5 μg/ml
# [12] = tested on: primary cultured cortical neurons; test: Primary cultured microglia-mediated neuronal cell injury (micrographs, 51Cr release, LDH release); type: cell-based, mice; details: primary cultured microglia with cortical neurons
# Source text: CD45 positive cells (brown) are microglia, while neurofilament L-staining cells (red) are neurons. […] Results shown are from one of three independent experiments with similar results; FIG. 2E is a graph showing primary cultured microglia-mediated neuronal cell injury as evidenced by ^51Cr release. Data are reported as mean ^51Cr release values±1 SEM and n=9 for each condition presented. […] N=9 for each condition presented.
# Having shown that Aβ peptides activate microglia through the CD40 pathway, it was then investigated whether activation of Aβ-pretreated microglia by ligation of CD40 could mediate neuronal cell injury (23,24).
# [13] = increasing concentrations, 24 hours
molecule,measurement,setting,value
"Aβ1-40: amyloid β peptide 1-40, freshly solubilized",IL-1β secretion at largest dose,IL-1β [1]; 20 μM,has no effect
same,"IL-1β secretion, dose dependence",IL-1β [1]; [13],does not show a dose-dependent effect
same,IFN-γ production at largest dose,"IFN-γ; 20 μM, vs control",does induce a significant production of IFN-γ
same,"IFN-γ secretion, dose dependence",IFN-γ; [13],does not show a dose-dependent effect
same,"CD40 cell-surface expression, flow cytometry",CD40 [2],significantly induce CD40 expression
same,IFN-γR expression in HASM cells,IFN-γR [3]; 48 hours,induces a significant effect on IFN-γR
same,IFN-γR expression in HASM cells on CD40 ligation by mAb (3/23),"IFN-γR [3]; Aβ-treated cells, 1 μg/ml mAb, four hours",synergistic
same,IL-1β release following CD40 ligation,IL-1β [4],synergistic effect
same,IL-1β release in the absence of CD40L stimulation,IL-1β [4],not sufficient to elicit IL-1β
same,CD40 expression on cultured microglial cells,"CD40 [5]; 250 nM freshly solubilized peptide, N9 and N60 cells, vs control peptide or Aβ-free",significantly induce CD40 expression
same,IFN-γR expression in HAEC,IFN-γR [6]; 48 hours,neither Aβ1-40 nor Aβ25-35 modulate the IFN-γR expression
same,"increase in CD40 expression vs control peptide or Aβ-free, Western",CD40 [7],~2 fold
same,"CD40 expression in HAEC, dose dependence",CD40 [8],dose-dependently increase CD40 expression
same,lowest effective concentration for CD40 expression,CD40 [8]; HAEC,10 µM
same,"cell injury, LDH release",HAEC [9],no significant induction of cell injury
same,dose dependence of endothelial CD40,CD40 [10],marked increase in endothelial CD40 which is dose-dependent
same,"cell death, MTS assay, HAEC",HAEC [11],significant amount of cell death
IFN-γ: Human IFN-γ recombinant protein (Genzyme),"CD40 cell-surface expression, flow cytometry",CD40 [2],significantly induce CD40 expression
same,IL-1β release following CD40 ligation,IL-1β [4],synergistic effect; also recorded: more pronounced than Aβ's effect
same,IL-1β release in the absence of CD40L stimulation,IL-1β [4],not sufficient to elicit IL-1β
same,effect of cytokine on Aβ-dependent CD40 expression,"CD40 [5]; low dose 10 U/mL, Aβ-challenged microglia",synergistically enhances Aβ-dependent CD40 expression
same,expression of IFN-γR on cytokine treatment,IFN-γR [6],up-regulate the expression of CD40 and IFN-γR
same,"increase in CD40 expression vs control peptide or Aβ-free, Western",CD40 [7],~2.5 fold
same,expression of CD40 on cytokine treatment,CD40 [8],up-regulate the expression of CD40 and IFN-γR
same,dose dependence of endothelial CD40,CD40 [10],dose-dependent induction of endothelial CD40
IL-1β: recombinant human cytokine,expression of IFN-γR on cytokine treatment,IFN-γR [6],up-regulate the expression of CD40 and IFN-γR
same,expression of CD40 on cytokine treatment,CD40 [8],up-regulate the expression of CD40 and IFN-γR
TNF-α,"neuronal injury and death, LDH release",neurons,dose-dependently induces neuronal injury and death
B1,IL-1β release,IL-1β [4]; CD40L and Aβ-free condition,approximately 50 pg/mg total protein
same,TNF-α release on addition of CD40L,TNF-α,synergistically increases TNF-α release
same,change in cortical neurons,cortical neurons,no change in cortical neurons
same,neuronal degeneration / injury in micrographs,[12],not detectable

# — patent publication US6787318B1, “Assay for evaluating the therapeutic effectiveness of agents in reducing Alzheimer's disease pathology” (Roskamp Research Institute, LLC, priority 1999, dated 2004)
